Results on ten compounds are retold here after US20240158446A1, “CYCLIC COMPOUND HAVING SELECTIVE INHIBITORY ACTION ON KRAS OVER HRAS AND NRAS” (CHUGAI SEIYAKU KABUSHIKI KAISHA, priority 2021, published 2024).

Where two headings read alike, the source gives them in different places. Where a SMILES comes first, the peptide text is derived from it. Bridges are numbered along the chain shown (N, C = ends). [ ]: non-standard residue; d: D form. The star is where a group is joined. hPhe(3-Cl-4-CF3) = N[C@@H](CCc1ccc(C(F)(F)F)c(Cl)c1)C(=O)O; NPrPhe(4-CF3) = CCCN[C@@H](Cc1ccc(C(F)(F)F)cc1)C(=O)O; NMeGly(cPent) = CN[C@H](C(=O)O)C1CCCC1; NMeD = CN[C@@H](CC(=O)O)C(=O)O; NMeL = CN[C@@H](CC(C)C)C(=O)O; Morpholide = C1CN(*)CCO1; Ac5c = NC1(C(=O)O)CCCC1; NcPrGly = O=C(O)CNC1CC1; Ac4c = NC1(C(=O)O)CCC1; NPrGly = CCCNCC(=O)O; Sar = CNCC(=O)O

Test [1] has as its target GDP-bound KRAS wild-type protein (Homo sapiens, UniProt P01116). Put plainly: Binding to KRAS by surface plasmon resonance (SPR), Single Cycle Kinetics. Conditions: GDP-bound KRAS wild-type protein, read-out: KRAS KD. On the technique in general: SPR reads the build-up and loss of mass on a sensor chip optically.
Test [2] deals with GDP-bound NRAS wild-type protein (Homo sapiens, UniProt P01111). In words: Binding to NRAS by surface plasmon resonance (SPR), Single Cycle Kinetics. Conditions: for NRAS/KRAS (ratio of KD value with respect to GDP-bound NRAS wild-type protein to KD value with respect to KRAS): SPR KD ratio NRAS/KRAS, class symbols.
Sequence of GDP-bound NRAS wild-type protein (P01111 whole entry): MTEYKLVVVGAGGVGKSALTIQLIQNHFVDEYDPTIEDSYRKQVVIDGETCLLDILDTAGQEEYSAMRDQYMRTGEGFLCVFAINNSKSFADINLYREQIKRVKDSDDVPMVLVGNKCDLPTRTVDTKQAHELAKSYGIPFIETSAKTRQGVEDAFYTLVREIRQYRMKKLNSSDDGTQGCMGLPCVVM
In test [3] the target is GDP-bound HRAS wild-type protein (Homo sapiens, UniProt P01112). In words: Binding to HRAS by surface plasmon resonance (SPR), Single Cycle Kinetics. Conditions: for HRAS/KRAS (ratio of KD value with respect to GDP-bound HRAS wild-type protein to KD value with respect to KRAS): SPR KD ratio HRAS/KRAS, class symbols.
Sequence of GDP-bound HRAS wild-type protein (P01112 whole entry): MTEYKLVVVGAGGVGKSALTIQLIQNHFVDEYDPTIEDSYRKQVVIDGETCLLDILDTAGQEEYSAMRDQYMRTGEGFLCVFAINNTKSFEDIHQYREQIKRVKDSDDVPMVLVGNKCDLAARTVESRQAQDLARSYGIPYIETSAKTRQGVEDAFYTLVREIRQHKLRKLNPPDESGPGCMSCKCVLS
[4] abbreviates: SPR Single Cycle Kinetics, 1:1 binding model.
[5] abbreviates: SPR, GDP-bound NRAS wild-type protein vs GDP-bound KRAS wild-type protein.
The mark [6] stands for this setting: SPR, GDP-bound HRAS wild-type protein vs GDP-bound KRAS wild-type protein.

Sequence of GDP-bound KRAS wild-type protein (P01116 whole entry): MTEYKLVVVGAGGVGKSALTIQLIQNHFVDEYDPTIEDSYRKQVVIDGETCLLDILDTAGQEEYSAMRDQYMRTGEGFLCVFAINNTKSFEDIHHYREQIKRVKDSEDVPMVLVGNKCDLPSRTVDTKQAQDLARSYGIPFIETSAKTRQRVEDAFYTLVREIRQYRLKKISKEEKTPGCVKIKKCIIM

The term Kd denotes the constant that tells how readily two partners part at equilibrium. With `CCC[C@H]1C(=O)N[C@@H]([C@@H](C)CC)C(=O)N(C)CC(=O)N(C)[C@H]2C/C=C\CCN(C2=O)[C@@H](Cc2ccc(C(F)(F)F)cc2)C(=O)N(C)CC(=O)N[C@@H](CCc2ccc(Cl)c(C(F)(F)F)c2)C(=O)N2C[C@H](OCC)C[C@H]2C(=O)NC2(CC(C)(C)C2)C(=O)N(C)[C@@H](C(CC)CC)C(=O)N(C)[C@H](C(=O)N(C)C)CC(=O)N1C` [PP2785], the Kd in test [1] (setting [4]) stood at 0.26 nM. In test [2], the “NRAS/KRAS (ratio of KD value with respect to GDP-bound NRAS wild-type protein to KD value with respect to KRAS)” value was “AA (a compound having 20 or more is denoted as AA)”. The “HRAS/KRAS (ratio of KD value with respect to GDP-bound HRAS wild-type protein to KD value with respect to KRAS)” value in test [3] is “A (a compound having 10 or more and less than 20 is denoted as A)”.
With `CC[C@H](C)[C@@H]1NC(=O)[C@H](CC)N(C)C(=O)C[C@@H](C(=O)N(C)C)N(C)C(=O)[C@H](C2CCCC2)N(C)C(=O)C2(CCCC2)NC(=O)[C@@H]2CCCN2C(=O)[C@H](CCc2cc(F)c(C(F)(F)F)c(F)c2)NC(=O)CN(C)C(=O)[C@H](Cc2ccc(C(F)(F)F)cc2)N2CC(C)[C@@H](C)C[C@@H](C2=O)N(C)C(=O)CN(C)C1=O` (stereo partly drawn) [PP1349], the Kd in test [1] (SPR, Single Cycle Kinetics, 1:1 binding model) was found to be 0.09 nM. Further, the “NRAS/KRAS (ratio of KD value for NRAS to KD value for KRAS)” value in test [2] (SPR, GDP-bound NRAS wild-type protein vs GDP-bound KRAS wild-type protein, KD ratio class) was “C (A compound having a KD ratio of 0.1 or more and less than 3 is denoted as C)”. In test [3] (SPR, GDP-bound HRAS wild-type protein vs GDP-bound KRAS wild-type protein, KD ratio class), the “HRAS/KRAS (ratio of KD value for HRAS to KD value for KRAS)” value was “B (a compound having 3 or more and less than 10 is denoted as B)”.
On to `CCCN1CC(=O)NC2(CCCC2)C(=O)N(C)[C@@H](C2CCCC2)C(=O)N(C)[C@H](C(=O)N2CCOCC2)CC(=O)N(C)[C@@H](CC(C)C)C(=O)N[C@@H]([C@@H](C)CC)C(=O)N(C)CC(=O)N(C)CC(=O)N(CCC)[C@@H](Cc2ccc(C(F)(F)F)cc2)C(=O)N(C)CC(=O)N[C@@H](CCc2ccc(C(F)(F)F)c(Cl)c2)C1=O` [PP0267] ([NMeL]I[Sar][Sar][NPrPhe(4-CF3)][Sar][hPhe(3-Cl-4-CF3)][NPrGly][Ac5c][NMeGly(cPent)][NMeD]-Morpholide; lactam N-11), for which, in test [1] (setting [4]), the Kd was found to be 0.87 nM. In addition, the “NRAS/KRAS (ratio of KD value for NRAS to KD value for KRAS)” value in test [2] (setting [5]) was “B (a compound having 3 or more and less than 10 is denoted as B)”. Also, the “HRAS/KRAS (ratio of KD value for HRAS to KD value for KRAS)” value in test [3] (setting [6]) was “B (a compound having 3 or more and less than 10 is denoted as B)”.
`CCC[C@H]1C(=O)N[C@@H]([C@@H](C)CC)C(=O)N(C2CC2)CC(=O)N(C)[C@H]2C/C=C\CCN(C2=O)[C@@H](Cc2ccc(C(F)(F)F)cc2)C(=O)N(C)CC(=O)N[C@@H](CCc2ccc(Cl)c(Cl)c2)C(=O)N2C[C@H](OCC)C[C@H]2C(=O)NC2(CC(C)(C)C2)C(=O)N(C)[C@@H](CC2CCC2)C(=O)N(C)[C@H](C(=O)N(C)C)CC(=O)N1C` [PP2819]: in test [1] (setting [4]), the Kd was 2.2 nM. Further, the “NRAS/KRAS (ratio of KD value with respect to GDP-bound NRAS wild-type protein to KD value with respect to KRAS)” value in test [2] is “A (a compound having 10 or more and less than 20 is denoted as A)”. Also, the “HRAS/KRAS (ratio of KD value with respect to GDP-bound HRAS wild-type protein to KD value with respect to KRAS)” value in test [3] is “A (a compound having 10 or more and less than 20 is denoted as A)”.
Turning to `CCCN1C(=O)CN(C)C(=O)CN(C2CC2)C(=O)[C@H]([C@@H](C)CC)NC(=O)[C@H](CC(C)C)N(C)C(=O)C[C@@H](C(=O)N2CCOCC2)N(C)C(=O)[C@H](C2CCCC2)N(C)C(=O)C2(CCCC2)NC(=O)[C@@H]2CCCN2C(=O)[C@H](CCc2ccc(C(F)(F)F)c(Cl)c2)NC(=O)CN(C)C(=O)[C@@H]1Cc1ccc(C(F)(F)F)cc1` [PP0252] ([NMeL]I[NcPrGly][Sar][NPrPhe(4-CF3)][Sar][hPhe(3-Cl-4-CF3)]P[Ac5c][NMeGly(cPent)][NMeD]-Morpholide; lactam N-11), the dissociation constant Kd in test [1] (setting [4]) was determined as 0.34 nM. Moreover, in test [2] (setting [5]), the “NRAS/KRAS (ratio of KD value for NRAS to KD value for KRAS)” value is “B (a compound having 3 or more and less than 10 is denoted as B)”. In test [3] (setting [6]), the “HRAS/KRAS (ratio of KD value for HRAS to KD value for KRAS)” value is “B (a compound having 3 or more and less than 10 is denoted as B)”.
`CCCN1C(=O)CN(C)C(=O)CNC(=O)[C@H]([C@@H](C)CC)NC(=O)[C@H](CC(C)C)N(C)C(=O)C[C@@H](C(=O)N2CCOCC2)N(C)C(=O)[C@H](C2CCCC2)N(C)C(=O)C2(CCC2)NC(=O)[C@@H]2CCCN2C(=O)[C@H](CCc2ccc(C(F)(F)F)c(Cl)c2)NC(=O)CN(C)C(=O)[C@@H]1Cc1ccc(C(F)(F)F)cc1` [PP0393] ([NMeL]IG[Sar][NPrPhe(4-CF3)][Sar][hPhe(3-Cl-4-CF3)]P[Ac4c][NMeGly(cPent)][NMeD]-Morpholide; lactam N-11): the Kd in test [1] (setting [4]) came out at 0.11 nM. The “NRAS/KRAS (ratio of KD value for NRAS to KD value for KRAS)” value in test [2] (setting [5]) was “B (a compound having 3 or more and less than 10 is denoted as B)”. In addition, the “HRAS/KRAS (ratio of KD value for HRAS to KD value for KRAS)” value in test [3] (setting [6]) is “B (a compound having 3 or more and less than 10 is denoted as B)”.
In the case of `CCO[C@@H]1C[C@H]2C(=O)NC3(CCC3)C(=O)N(C)[C@@H](C3CCCC3)C(=O)N(C)[C@H](C(=O)N(C)C)CC(=O)N(C)[C@H]3CCCCCCc4ccc(cc4)C[C@@H](C(=O)N(C)CC(=O)N[C@@H](CCc4ccc(C(F)(F)F)c(OC)c4)C(=O)N2C1)N1CC/C=C\C[C@@H](C1=O)N(C)C(=O)CN(C)C(=O)[C@H]([C@@H](C)CC)NC3=O` [PP2264], the Kd in test [1] (SPR, Single Cycle Kinetics) came to 0.11 nM. Also, in test [2] (setting [5]), the “NRAS/KRAS (ratio of KD value for NRAS to KD value for KRAS)” value is given as “AA (a compound having 20 or more is denoted as AA)”. The “HRAS/KRAS (ratio of KD value for HRAS to KD value for KRAS)” value in test [3] (setting [6]) was “A (a compound having 10 or more and less than 20 is denoted as A)”.
Consider `CC[C@H](C)[C@@H]1NC(=O)[C@H](CC2CC2)N(C)C(=O)C[C@@H](C(=O)N(C)C)N(C)C(=O)[C@H](C2CCCC2)N(C)C(=O)C2(CC(C)(C)C2)NC(=O)[C@@H]2C[C@@H](F)CN2C(=O)[C@H](CCc2cc(F)c(C(F)(F)F)c(F)c2)NC(=O)CN(C)C(=O)[C@H](Cc2ccc(C)cc2)N2CC/C=C\C[C@@H](C2=O)N(C)C(=O)CN(C)C1=O` [PP2804], for which the Kd in test [1] (setting [4]) was found to be 0.033 nM. Further, the “NRAS/KRAS (ratio of KD value with respect to GDP-bound NRAS wild-type protein to KD value with respect to KRAS)” value in test [2] was “A (a compound having 10 or more and less than 20 is denoted as A)”. Besides, the “HRAS/KRAS (ratio of KD value with respect to GDP-bound HRAS wild-type protein to KD value with respect to KRAS)” value in test [3] was “A (a compound having 10 or more and less than 20 is denoted as A)”.
Regarding `CCO[C@@H]1C[C@H]2C(=O)NC3(CCC3)C(=O)N(C)[C@@H](C3CCCC3)C(=O)N(CCc3ccccc3)[C@H](C(=O)N(C)C)CC(=O)N(C)[C@@H](CC)C(=O)N[C@@H]([C@@H](C)CC)C(=O)N(C)CC(=O)N(C)[C@H]3CCCCN(C3=O)[C@@H](Cc3ccc(C(F)(F)F)cc3)C(=O)N(C)CC(=O)N[C@@H](CCc3cc(F)c(C(F)(F)F)c(F)c3)C(=O)N2C1` [PP0647], the Kd in test [1] (setting [4]) worked out at 0.68 nM. In addition, the “NRAS/KRAS (ratio of KD value with respect to NRAS to KD value with respect to KRAS)” value in test [2] (setting [5]) is “C (A compound having a KD ratio of 0.1 or more and less than 3 is denoted as C)”. In addition, in test [3] (setting [6]), the “HRAS/KRAS (ratio of KD value with respect to HRAS to KD value with respect to KRAS)” value is “B (a compound having 3 or more and less than 10 is denoted as B)”.
With `CCCC[C@H]1C(=O)N[C@@H]([C@@H](C)CC)C(=O)N(C)CC(=O)N(C)[C@H]2C/C=C\CCN(C2=O)[C@@H](Cc2ccc(C(F)(F)F)cc2)C(=O)N(C)CC(=O)N[C@@H](CCc2cc(F)c(C(F)(F)F)c(F)c2)C(=O)N2C[C@H](OCC)C[C@H]2C(=O)NC2(CC(C)(C)C2)C(=O)N(C)[C@@H](C2CCCC2)C(=O)N(C)[C@H](C(=O)N(C)CC)CC(=O)N1C` [PP2806], the Kd in test [1] (setting [4]) worked out at 0.12 nM. Besides, the “NRAS/KRAS (ratio of KD value with respect to GDP-bound NRAS wild-type protein to KD value with respect to KRAS)” value in test [2] was “A (a compound having 10 or more and less than 20 is denoted as A)”. Moreover, in test [3], the “HRAS/KRAS (ratio of KD value with respect to GDP-bound HRAS wild-type protein to KD value with respect to KRAS)” value is “A (a compound having 10 or more and less than 20 is denoted as A)”.
